Experimental data: PMC8294059, “Identification and Immune Assessment of T Cell Epitopes in Five Plasmodium falciparum Blood Stage Antigens to Facilitate Vaccine Candidate Selection and Optimization” (Frontiers in Immunology, 2021)
Where two headings read alike, the source gives them in different places. Where a SMILES comes first, the peptide text is derived from it.

Key:
HLA-DRB1*0301 = HLA-DRB1*0301 (Homo sapiens, UniProt P01903+P01911, A100K/A102G/A103R/A169T/F55Y/I96L/K41T/L162R/M171V/P40S/Q125H/Q178H/Q39Y/R42S/S66N/T106N/T262R/W38E/Y61H); assay: biochemical; format: binding
HLA-DRB1*0101 = biological target: T1, HLA-DRB1*0101 (Homo sapiens, UniProt P01903+P01911, A100R/D57E/F55L/F60I/F76Y/I96L/L162R/M171V/P40L/Q125E/R42F/V115G/Y59C); assay: biochemical; format: binding
T1 construct: purchased
In short: (§1)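 HLA-peptide complexes are captured with anti-HLA-DR antibody, and bound reference is quantified by europium-probe time-resolved fluorescence.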

HLA-DRB1*0701 = HLA-DRB1*0701 (Homo sapiens, UniProt P01903+P01911, A100R/A102G/A103Q/D57E/D86V/E43K/F76Y/K127E/L162R/M171V/P40G/Q125H/Q99D/R33Q/R42Y/R54Q/S133A/S66F/T210M/V115G/Y107V/Y59L/Y89S); assay: biochemical; format: binding
In short: as §1

HLA-DRB1*1301 = HLA-DRB1*1301 (Homo sapiens, UniProt P01903+P01911, A100E/A169T/K41T/L162R/M171V/P40S/Q125H/Q178H/Q39Y/Q99D/R42S/S66N/T262R/W38E/Y61H); assay: biochemical; format: binding
In short: as §1

HLA-DRB1*1501 = biological target: T2, HLA-DRB1*1501 (Homo sapiens, UniProt P01903+P01911); assay: biochemical; format: binding
T2 construct: purchased
In short: as §1

HLA-DRB1*0401 = biological target: T3, HLA-DRB1*0401 (Homo sapiens, UniProt P01903+P01911, A100K/A169T/F76Y/I96L/K127E/L162R/M171V/N62H/P40V/Q125Y/R42H/S133A/S149N/S66Y/V115G/V209L/W38E); assay: biochemical; format: binding
T3 construct: purchased
In short: as §1

HLA-DRB1*0801 = HLA-DRB1*0801 (Homo sapiens, UniProt P01903+P01911, A100R/A103L/A169T/D86S/F76Y/H45Y/I96F/K41T/L162R/M171V/P40S/Q125H/Q178H/Q39Y/Q99D/R218S/R42G/S66Y/V115G/W38E); assay: biochemical; format: binding
In short: as §1

HLA-DRB1*1101 = HLA-DRB1*1101 (Homo sapiens, UniProt P01903+P01911, A100R/A169T/A87E/I96F/K41T/L162R/M171V/P40S/Q125H/Q178H/Q39Y/Q99D/R42S/S66Y/T262R/V115G/W38E); assay: biochemical; format: binding
In short: as §1

HLA-B*0702 = HLA-B*0702 (Homo sapiens, UniProt P01889); assay: In vitro class I HLA binding assay (fluorescence polarization competition); conditions: allele B*0702; fluorescence polarization competition; read-out: IC50 (nM), in vitro HLA binding affinity
Procedure: A cell-free class I HLA binding assay that allows for in vitro quantification of peptide-HLA binding affinity in a competition format was used. In this assay, a fluorescently labeled, high binding, control peptide is loaded onto 384-well ½-area plates along with unlabeled experimental peptides. To remove endogenous peptides and render the HLA A and B molecules receptive to binding, HLA is heated at 53°C for 15 minutes and immediately added to the assay. The mixture is then allowed to stand for three days. […] Binding of experimental peptides is expressed as the percent inhibition of the labeled control peptide (experimental fluorescence / control fluorescence, multiplied by 100). The percent inhibition values for each experimental peptide (across a range of molar concentrations) are used to calculate the concentration which inhibits 50% of the labeled control peptide’s specific binding. This value is referred to as the peptide’s IC50.

[1] = binding inhibition assay, NB = non-binder (no dose-dependent inhibition), read-out: DRB1*0303 IC50
[2] = binding inhibition assay, NB = non-binder (no dose-dependent inhibition), read-out: DRB1*0101 IC50
[3] = binding inhibition assay, NB = non-binder (no dose-dependent inhibition), read-out: DRB1*0701 IC50
[4] = binding inhibition assay, NB = non-binder (no dose-dependent inhibition), read-out: DRB1*1301 IC50
[5] = binding inhibition assay, NB = non-binder (no dose-dependent inhibition), read-out: DRB1*1501 IC50
[6] = binding inhibition assay, NB = non-binder (no dose-dependent inhibition), read-out: DRB1*0801 IC50

Compound | IC50 (HLA-DRB1*0301; [1]) [µM] | IC50 (HLA-DRB1*0101; [2]) [µM] | IC50 (HLA-DRB1*0701; [3]) [µM] | IC50 (HLA-DRB1*1301; [4]) [µM] | IC50 (HLA-DRB1*1501; [5]) [µM] | IC50 (HLA-DRB1*0101) [µM] | IC50 (HLA-DRB1*0801) [µM] | IC50 (HLA-DRB1*0801; [6]) [µM] | other results
CC[C@H](C)[C@H](NC(=O)[C@H](CC(=O)O)NC(=O)[C@H](CCC(=O)O)NC(=O)[C@H](Cc1ccc(O)cc1)NC(C)=O)C(=O)N[C@H](C(=O)N[C@@H](CC(C)C)C(=O)N[C@@H](CCCCN)C(=O)N[C@@H](CO)C(=O)N[C@@H](Cc1c[nH]cn1)C(=O)N[C@@H](CCSC)C(=O)N[C@@H](CC(N)=O)C(=O)N[C@@H](CCCNC(=N)N)C(=O)N[C@@H](CCC(=O)O)C(=O)N[C@@H](CO)C(=O)N[C@@H](CC(=O)O)C(=O)N[C@@H](CC(=O)O)C(N)=O)C(C)C [EBA175_015] (Ac-YEDIVLKSHMNRESDD-NH2) | > 100 | 19.7 | > 100 | 4.92 | 36 | – | – | – | –
CC[C@H](C)[C@H](NC(=O)[C@H](CC(N)=O)NC(=O)[C@H](CC(N)=O)NC(=O)[C@H](Cc1ccccc1)NC(=O)[C@H](CC(N)=O)NC(=O)[C@H](CC(N)=O)NC(=O)[C@H](CC(N)=O)NC(=O)[C@H](CC(N)=O)NC(=O)[C@H](CO)NC(=O)[C@H](CCCNC(=N)N)NC(=O)[C@H](CCSC)NC(=O)[C@H](CC(N)=O)NC(=O)[C@H](CC(C)C)NC(=O)[C@@H](NC(=O)[C@H](CC(N)=O)NC(=O)CNC(=O)[C@@H](N)CO)C(C)C)C(N)=O [EBA175_017A] (H-SGNVLNMRSNNNNFNNI-NH2) | – | – | – | – | – | 0.814 | 13.9 | – | IC50 (HLA-DRB1*0301): 1.99 µM; IC50 (HLA-DRB1*0401): 2.56 µM; IC50 (HLA-DRB1*0701): 1.1 µM; IC50 (HLA-DRB1*1101): 3.13 µM; IC50 (HLA-DRB1*1301): 7.42 µM; IC50 (HLA-DRB1*1501): 2.72 µM
CC[C@H](C)[C@H](NC(=O)[C@H](CCSC)NC(=O)[C@H](CO)NC(=O)[C@H](C)NC(=O)[C@H](CC(N)=O)NC(=O)[C@H](CCCCN)NC(=O)[C@H](CC(N)=O)NC(=O)[C@H](CCCCN)NC(=O)[C@H](Cc1ccccc1)NC(=O)CNC(=O)[C@H](CCC(=O)O)NC(=O)[C@H](CCCCN)NC(C)=O)C(=O)N[C@@H](CCCCN)C(=O)N[C@@H](CO)C(N)=O [AMA1_006A] (Ac-KEGFKNKNASMIKS-NH2) | – | – | – | – | – | 3.94 | 3.74 | – | IC50 (HLA-DRB1*0301; read-out: DRB1*0303 IC50): > 100 µM; IC50 (HLA-DRB1*0401; read-out: DRB1*0401 IC50): > 100 µM; IC50 (HLA-DRB1*0701; read-out: DRB1*0701 IC50): > 100 µM; IC50 (HLA-DRB1*1101; read-out: DRB1*1101 IC50): > 100 µM; IC50 (HLA-DRB1*1301; read-out: DRB1*1301 IC50): > 100 µM; IC50 (HLA-DRB1*1501; read-out: DRB1*1501 IC50): > 100 µM
Ac-DELLKRILDMSNEYSLFITSD-NH2 [RH5_011] | 10.9 | 0.073 | 13.7 | 37.2 | 2.15 | – | – | 95.2 | IC50 (HLA-DRB1*0401; binding inhibition assay, NB = non-binder (no dose-dependent inhibition), read-out: DRB1*0401 IC50): 2.32 µM; IC50 (HLA-DRB1*1101; binding inhibition assay, NB = non-binder (no dose-dependent inhibition), read-out: DRB1*1101 IC50): 30.3 µM; IC50 (HLA-B*0702): 13700 nM
CC[C@H](C)[C@H](NC(=O)[C@H](Cc1ccc(O)cc1)NC(=O)[C@@H]1CCCN1C(=O)[C@H](CC(N)=O)NC(=O)[C@H](CC(=O)O)NC(C)=O)C(=O)N[C@@H](CO)C(=O)N[C@@H](CCCCN)C(=O)N[C@@H](Cc1ccc(O)cc1)C(=O)NCC(=O)N[C@@H](CC(N)=O)C(=O)N[C@@H](CCCCN)C(=O)N[C@@H](CC(C)C)C(=O)N[C@@H](CS)C(=O)N[C@@H](CCC(=O)O)C(=O)N[C@@H](CCCNC(=N)N)C(N)=O [RIPR_014] (Ac-DNPYISKYGNKLCER-NH2) | > 100 | 0.092 | > 100 | – | 0.025 | – | – | 95 | –
